# Test results reported in patent US20200281194A1, “A Novel Green Micro-Emulsion for Controlling Fungal Wilt Diseases” (priority 2017, published 2020).
# Test system: FoL (Fusarium wilt of tomato)
# Assay: Wilt incidence pot study in tomato (AUDPC)
# Format: in vivo, Fusarium oxysporum
# Conditions: @ 0.1%
# Procedure: For wilt incidence study, seeds, seedlings and soil are treated with above mentioned three concentrations of microemulsion formulation. In brief, soil is autoclaved and artificially inoculated with Fusarium spores (@ 2.6×10^5 spores/g soil). Seeds are treated with microemulsion formulations by the method used for germination study, but herein, seeds are sowed directly into 1 kg diseased pot. For seedling treatment, healthy eight-leaf staged seedlings of tomato are treated with three respective concentrations of microemulsion while in case of soil treatment; soil of pot is treated @ 5 ml per 150 cc soil. Healthy and untreated seedlings are taken as control. Each treatment has 5 replicates and all the pots are kept in the net house in Micro model, IITD for 45 days. Carbendazim (@0.1%) is taken as chemical control. For accessing the disease progression in the tomato plant, following grading system is used. Symptoms like yellowing of leaves, wilting of plant, height and weight of plant are examined and given a grade by comparing with the control having maximum diseases infection.
# Area under the disease progress curve (AUDPC) is a method to calculate the percentage inhibition of wilt disease and is calculated as:
# AUDPC=Σ[(Ri+1+Ri)/2][ti+1−ti], R=disease rating at the ith observation ti=time (days) since previous ratings at the ith observation, n=total number of observations.
smiles,measurement,setting,value
"COC(=O)Nc1nc2ccccc2[nH]1 [carbendazim, Carbendazim]",Disease reduction % of FoL,Seedling treatment,60.02%
same,Disease reduction % of FoL,Soil treatment,71.24%
